According to patent US4518789A, “Phenyl alpha-acyloxyacetamide derivatives and their therapeutic use” (priority 1983, dated 1985):

How the values were obtained:
[1] = tested on: itch provoked by papain or histamine dihydrochloride; experiment: Anti-pruritic effect on normal human skin (papain or histamine induced itch); assay type: in vivo; conditions: 2 to 5% topical, normal human adult volunteers
Procedure: Itch provoking pruritic compositions were prepared as follows: papain 0.5% solution was prepared by dissolving papain 50 mg in 10 ml of saline, and histamine 0.2% solution was prepared by dissolving histamine dihydrochloride 20 mg in 10 ml of saline. Itching was provoked or induced as follows: a pruritic composition in a volume of 0.05 ml containing papain or histamine dihydrochloride as a pruritic agent was topically applied on the flexor forearm of normal human adult volunteers and the skin site was gently pricked rapidly through the solution with a 26-gauge needle to the level of the papillary dermis as described by Bernstein et al. (J. E. Bernstein, R. M. Swift, K. Soltani and A. L. Lorincz: Antipruritic Effect of an Opiate Antagonist, Naloxone Hydrochloride in Journal of Investigative Dermatology 78, 82-83, 1982). This technique provoked or induced itch sensation at the test skin site within a few minutes following the topical application of the pruritic composition. After itch sensation had been induced a composition containing 2 to 5% N-ethyl phenyl-alpha-acetoxyacetamide, N-phenethyl phenyl-alpha-acetoxyacetamide or other phenyl-alpha-acyloxyacetamide derivatives of the instant invention was topically applied on the pruritic skin site. The vehicle alone cream containing no active ingredient was used as a control.

[2] = tested on: hind limb arthritis secondary to hip dysplasia; experiment: Analgesic effects, oral, dogs with arthritis; assay type: in vivo; conditions: two dogs, oral approximately 8 mg per kg
Procedure: To test whether in addition to tranquilizing effects in animals, analgesic properties of phenyl-alpha-acyloxyacetamide derivatives of the instant invention might exist we administered systemically these compounds to dogs. N-ethyl phenyl-alpha-acetoxyacetamide or N-phenethyl phenyl-alpha-acetoxyacetamide in single oral doses of approximately 8 mg per kg was given to two dogs disabled with hind limb arthritis secondary to hip dysplasia. One dog weighed 23 kg; the other weighed 28 kg.
The disability in both animals was such that they were unable to jump up upon a test table, 45 cm L×45 cm W×45 cm H, on which had been placed a piece of food as an inducement; nor were they able to run about or romp, their movements being limited to walking with evident stiffness of gait.

common scratching = experiment: Systemic treatment of domestic dogs for common scratching; assay type: in vivo; conditions: oral single dose 5 to 10 mg per kg
Source text: It has already been established through tests in animals and humans that phenyl alpha-acyloxyacetamide derivatives are therapeutically effective for topical or systemic treatment of various dermatologic and other conditions.

summer eczema-prurigo = experiment: Oral anti-scratch (anti-pruritic) treatment of dogs; assay type: in vivo; conditions: for adverse effects on repeated dosing: dog, in vivo, po; for duration of anti-scratch or anti-pruritic effect / drowsiness or intoxication / time to stop scratching / anti-pruritic or anti-scratching effect on repeated dosing: dogs; for duration of anti-scratch or anti-pruritic effect / drowsiness or intoxication / time to stop scratching: oral single dose 5 to 10 mg/kg; for drowsiness or intoxication / time to stop scratching: all three dogs; for anti-pruritic or anti-scratching effect on repeated dosing: oral, repeated at intervals of two to several days
Procedure: Three dogs with summer eczema-prurigo were treated with oral administration of phenyl-alpha-acyloxyacetamide derivatives. Gelatin capsules containing N-ethyl phenyl-alpha-acetoxyacetamide or N-phenethyl phenyl-alpha-acetoxyacetamide at dosages ranging from 50 mg to 150 mg per capsule were prepared according to Examples. Single doses of 5 mg/kg to 10 mg/kg were administered orally to the dogs.
Oral doses containing N-ethyl phenyl-alpha-acetoxyacetamide or N-phenethyl phenyl-alpha-acetoxyacetamide were administered repeatedly to the dogs at intervals of two to several days.

[3] = tested on: calming or quieting behaviour; experiment: Tranquilizing effect, subcutaneous administration in mice; assay type: in vivo, hairless mice, white hairy mice; conditions: 1 to 2% solution
Procedure: (§1) Hairless mice, white hairy mice and dogs were used in these studies.
N-phenethyl phenyl-alpha-acetoxyacetamide, N-ethyl phenyl-alpha-acetoxyacetamide or other phenyl-alpha-acyloxyacetamide derivative of the instant invention was prepared as a 1 to 2% solution or as gelatin capsules containing 75 to 300 mg per capsule of the active ingredient. Hairless mice or white hairy mice five in each group were injected subcutaneously with the test solution in a volume of 0.1 ml. The same procedure was repeated once more 3 hours later. For the next 8 hours and also at 24 hours later, all the mice were carefully observed and examined for any signs and evidences of calming or quieting effects caused by the test compound.
Parameters and criteria used for sedative or tranquilizing effect were the same as that described in the foregoing section.

[4] = tested on: calming or sedative effects; experiment: Tranquilizing effect, oral administration in dogs; assay type: in vivo; conditions: test compounds 5 to 10 mg per kg
Procedure: as §1
Three dogs weighing between 10 to 20 kg were given orally N-phenethyl phenyl-alpha-acetoxyacetamide or N-ethyl phenyl-alpha-acetoxyacetamide in gelating capsules at doses of 5 to 10 mg per kg.

[5] = tested on: calming or quieting behaviour; experiment: Tranquilizing effect, topical administration in hairless mice; assay type: in vivo; conditions: 5% solution topical
Procedure: Hairless mice, ten in each group, were used in this study. N-phenethyl phenyl-alpha-acetoxyacetamide, N-ethyl phenyl-alpha-acetoxyacetamide or other phenyl-alpha-acyloxyacetamide derivative of the instant invention was prepared as a 5% solution in acetone: water, 8:2 or ethanol:water, 8:2. A test solution was topically applied to the left dorsal skin of hairless mice. The same topical applications were repeated three times at 30 minute intervals. A vehicle alone solution containing acetone and water or ethanol and water was used as a control. For the next 8 hours and also 24 hours later all mice were carefully observed and examined for any signs or evidence of calming or quieting effects caused by the test compound.
Normally when a mouse is picked up by the tail with thumb and forefinger the mouse struggles trying to free itself; and if the mouse is placed on a horizontal metallic grid uniformly spaced at 8 mm, the mouse nervously pulls itself across the grid, again trying to free itself from the restraining grip of the fingers.
If during the above observation period the mouse behaved the same before and after the topical treatment when picked up by the tail and placed on the metallic grid, the test compound was determined to have no significant tranquilizing effect by topical administration.

| SMILES | Anti-pruritic Effect [1] | physical incapacities [2] | time after administration at which incapacities were diminished [2] | relief of scratching, duration (common scratching) | adverse effects on repeated dosing (summer eczema-prurigo) | duration of anti-scratch or anti-pruritic effect (summer eczema-prurigo) | drowsiness or intoxication (summer eczema-prurigo) | time to stop scratching (summer eczema-prurigo) | anti-pruritic or anti-scratching effect on repeated dosing (summer eczema-prurigo) | tranquilizing effect [3] | tranquilizing / sedative effect [4] | tranquilizing effect [5] |
| --- | --- | --- | --- | --- | --- | --- | --- | --- | --- | --- | --- | --- |
| CCNC(=O)C(OC(C)=O)c1ccccc1 (stereo not drawn) [N-ethyl phenyl-alpha-acetoxyacetamide] | substantial anti-pruritic effect | diminished | Two to three | more than 8 hours | No evidence of adverse effects was detected | approximately 8 hours | mentally alert as usual and did not have any signs or symptoms of drowsiness or intoxication | one | the same anti-pruritic or anti-scratching effect | no detectable signs of sedation | no detectable signs of sedation | no detectable signs of sedation |
| CC(=O)OC(C(=O)NCCc1ccccc1)c1ccccc1 (stereo not drawn) [N-phenethyl phenyl-alpha-acetoxyacetamide] | substantial anti-pruritic effect | diminished | Two to three | more than 8 hours | No evidence of adverse effects was detected | approximately 8 hours | mentally alert as usual and did not have any signs or symptoms of drowsiness or intoxication | one | the same anti-pruritic or anti-scratching effect | marked degrees of calming effect | mild tranquilizing effect | marked degrees of tranquilizing effect |
